Reference: ChEMBL document CHEMBL4304767 (ACS Med Chem Lett, 2019)

Tests used:
[1] = target: T1, Muscarinic acetylcholine receptor M4 (Homo sapiens, UniProt P08173); test: (§1) Agonist activity at human Muscarinic acetylcholine receptor M4 expressed in HEK cells co-expressing Glosensor construct assessed as decrease in isoproterenol-induced cAMP accumulation incubated for 7 mins in presence of isoproterenol by Glosensor cAMP reagent/plate reader based luminescence assay; type: functional, cell-based
T1 sequence (P08173 whole entry): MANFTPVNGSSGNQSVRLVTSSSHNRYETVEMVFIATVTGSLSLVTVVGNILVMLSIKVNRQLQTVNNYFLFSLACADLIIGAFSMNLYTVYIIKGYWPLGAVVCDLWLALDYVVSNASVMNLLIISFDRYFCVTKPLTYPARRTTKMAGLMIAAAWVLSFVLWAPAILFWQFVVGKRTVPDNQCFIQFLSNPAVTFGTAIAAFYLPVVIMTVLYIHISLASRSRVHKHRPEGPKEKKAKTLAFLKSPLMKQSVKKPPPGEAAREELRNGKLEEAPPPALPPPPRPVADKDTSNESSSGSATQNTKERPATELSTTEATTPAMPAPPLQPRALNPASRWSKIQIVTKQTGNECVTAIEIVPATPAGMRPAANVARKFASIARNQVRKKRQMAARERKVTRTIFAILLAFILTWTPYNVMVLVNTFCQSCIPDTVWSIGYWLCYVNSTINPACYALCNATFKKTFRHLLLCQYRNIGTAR

[2] = target: T2, Muscarinic acetylcholine receptor M4 (Homo sapiens) (UniProt P08173); test: (§2) Agonist activity at human Muscarinic acetylcholine receptor M4 expressed in HEK cells co-expressing Glosensor construct assessed as decrease in isoproterenol-induced cAMP accumulation at 10 uM to 0.3 nM incubated for 2 hrs in presence of isoproterenol and measured after 7 mins by Glosensor cAMP reagent/plate reader based luminescence assay relative to acetylcholine; type: functional, cell-based
T2 sequence (whole entry): T1 sequence (P08173 whole entry)

[3] = target: T1, Muscarinic acetylcholine receptor M4; test: as §1, with “Positive allosteric modulatory” for “Agonist”, “as […]” for “decrease”, “acteylcholine-induced” for “isoproterenol-induced”, “isoproterenol/acetylcholine” for “isoproterenol”; type: functional, cell-based
[4] = target: T3, Muscarinic acetylcholine receptor M2 (Homo sapiens, UniProt P08172); test: as §2, with “M2” for “M4”, “7 mins” for “2 hrs”, “isoproterenol” for “isoproterenol and measured after 7 mins”; type: cell-based
T3 sequence (P08172 whole entry): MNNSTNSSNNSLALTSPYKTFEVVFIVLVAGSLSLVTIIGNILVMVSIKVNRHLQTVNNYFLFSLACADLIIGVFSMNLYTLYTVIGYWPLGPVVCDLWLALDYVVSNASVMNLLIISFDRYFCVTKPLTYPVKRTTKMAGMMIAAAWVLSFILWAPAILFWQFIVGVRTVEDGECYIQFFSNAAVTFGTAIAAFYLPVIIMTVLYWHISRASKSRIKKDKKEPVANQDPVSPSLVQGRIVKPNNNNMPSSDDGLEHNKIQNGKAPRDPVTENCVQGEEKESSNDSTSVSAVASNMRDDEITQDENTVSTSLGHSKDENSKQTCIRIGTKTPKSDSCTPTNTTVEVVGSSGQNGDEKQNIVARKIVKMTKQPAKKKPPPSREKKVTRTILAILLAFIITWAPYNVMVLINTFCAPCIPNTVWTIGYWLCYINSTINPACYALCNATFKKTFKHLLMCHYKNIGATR

[5] = test system: mouse BCRP; test: Efflux ratio of permeability across basolateral to apical over apical to basolateral in Doxycycline induced dog MDCK cells transfected with mouse BCRP; type: ADME, cell-based, Canis lupus familiaris
[6] = target: T3, Muscarinic acetylcholine receptor M2; test: Agonist activity at human Muscarinic acetylcholine receptor M2 expressed in HEK cells co-expressing Glosensor construct assessed as decrease in isoproterenol-induced cAMP accumulation incubated for 7 mins in presence of isoproterenol by Glosensor cAMP reagent/plate reader based luminescence assay; type: cell-based
[7] = test system: MDR1; test: Efflux ratio of permeability across basolateral to apical over apical to basolateral in dog MDCK cells transfected with MDR1 gene; type: ADME, cell-based, Canis lupus familiaris
[8] = target: T2, Muscarinic acetylcholine receptor M4 (Homo sapiens); test: Positive allosteric modulatory activity at human Muscarinic acetylcholine receptor M4 expressed in HEK cells co-expressing Glosensor construct assessed as as increase in acteylcholine-induced cAMP accumulation at 10 uM to 0.3 nM incubated for 7 mins in presence of isoproterenol/acetylcholine by Glosensor cAMP reagent/plate reader based luminescence assay relative to acetylcholine; type: functional, cell-based

COc1cccnc1C1CCN(C2CCCN(c3nsnc3C)CC2)CC1 (stereo not drawn)
EC50 [1]: 470 nM
Emax [2]: 107%

COc1cccnc1C1CCN(C2CCCN(c3nccs3)CC2)CC1 (stereo not drawn)
EC50 [1]: > 10000 nM
EC50 [3]: > 10000 nM

COc1cccnc1C1CCN(C2CCCN(c3ccncc3)CC2)CC1 (stereo not drawn)
EC50 [1]: > 10000 nM
EC50 [3]: > 10000 nM

COc1cccnc1C1CCN(CC2CCN(c3cnccn3)CC2)CC1
Emax at 7 min [4]: 102%
EC50 [1]: 296 nM
efflux ratio [5]: 1.62
EC50 ([6]; read-out: EC50): > 8830 nM
efflux ratio [7]: 3.89
Emax [2]: 78%

COc1cccnc1C1CCN(C2CCCN(c3cncnc3)CC2)CC1 (stereo not drawn)
EC50 [3]: > 10000 nM

c1ccc(-n2ccnc2[C@@H]2[C@@H]3CN(C4CC5(CCN(c6cnccn6)C5)C4)C[C@@H]32)cc1 (stereo partly drawn)
Emax at 7 min [4]: 79.4%
EC50 [1]: 7 nM
EC50 ([6]; read-out: EC50): 420 nM
Emax [2]: 83.8%

CCCC(=O)N1CCCC(N2CCC(c3ncccc3OC)CC2)CC1 (stereo not drawn)
EC50 [1]: > 8880 nM

COc1cccnc1C1CCN(C2CCCN(C(=O)OC(C)C)CC2)CC1 (stereo not drawn)
EC50 [1]: > 9250 nM

COc1cccnc1C1CCN(C2CCCN(c3cccnc3)CC2)CC1 (stereo not drawn)
Emax [8]: 80%
EC50 [3]: 10000 nM

COc1cccnc1C1CCN(C2CCCN(c3cccnn3)CC2)CC1 (stereo not drawn)
EC50 [3]: > 10000 nM

COc1cccnc1C1CCN(C2CCCN(c3ncns3)CC2)CC1 (stereo not drawn)
EC50 [1]: 1100 nM
Emax [2]: 101%

COc1cccnc1C1CCN(C2CCCN(c3nccnc3C)CC2)CC1 (stereo not drawn)
EC50 [1]: 3550 nM
Emax [2]: 120%
EC50 [3]: 3410 nM

COc1cccnc1C1CCN(C2CC3(CCN(c4cnccn4)C3)C2)CC1 (stereo not drawn)
Emax at 7 min [4]: 100%
EC50 [1]: 228 nM
EC50 ([6]; read-out: EC50): > 7350 nM
Emax [2]: 100%

CCOC(=O)N1CCCC(N2CCC(c3ncccc3OC)CC2)CC1 (stereo not drawn)
Emax at 7 min [4]: 83%
EC50 [1]: 11 nM
EC50 ([6]; read-out: EC50): 2520 nM
Emax [2]: 99 to 99.1%

COc1cccnc1C1CCN(C2CCCN(C(=O)OCC(C)C)CC2)CC1 (stereo not drawn)
EC50 [1]: > 9930 nM

CCNC(=O)N1CCCC(N2CCC(c3ncccc3OC)CC2)CC1 (stereo not drawn)
EC50 [1]: > 5990 nM

COc1cccnc1C1CCN(C2CCCN(c3nsnc3OC)CC2)CC1 (stereo not drawn)
EC50 [1]: 2510 nM
Emax [2]: 94%

COc1cccnc1C1CCN(C2CCCN(c3nncs3)CC2)CC1 (stereo not drawn)
EC50 [1]: > 10000 nM
EC50 [3]: > 10000 nM

O=C1CCCN1CC#CCN1CCCC1 [OXOTREMORINE]
Emax [8]: 90.7%
Emax [2]: 94.4%
EC50 [3]: 9 nM

CCOC(=O)N1CCC2(CC(N3C[C@@H]4[C@H](C3)[C@@H]4c3nccn3-c3ccccc3)C2)C1 (stereo partly drawn)
Emax at 7 min [4]: 100%
EC50 [1]: 3 nM
EC50 ([6]; read-out: EC50): 5160 nM
Emax [2]: 99%

CCCCCCOc1nsnc1C1=CCCN(C)C1
Emax [8]: 100%

COc1cccnc1C1CCN(C2CCCN(c3cnccn3)CC2)CC1 (stereo not drawn)
Emax [8]: 95.9%
Emax at 7 min [4]: 104%
EC50 [1]: 16 nM
EC50 ([6]; read-out: EC50): 250 nM
Emax [2]: 96.8%
EC50 [3]: 25 nM

COc1cccnc1C1CCN(C2CCCN(c3ncccn3)CC2)CC1 (stereo not drawn)
EC50 [3]: > 10000 nM

COc1cccnc1C1CCN(C2CCCN(c3cncc(C)n3)CC2)CC1 (stereo not drawn)
EC50 [1]: 9830 nM
Emax [2]: 100%
EC50 [3]: > 10000 nM

COc1cccnc1C1CCN(C2CCCN(c3ccccn3)CC2)CC1 (stereo not drawn)
EC50 [3]: > 10000 nM

CCOC(=O)N1CCC2(CC(N3CCC(c4ncccc4OC)CC3)C2)C1 (stereo not drawn)
EC50 [1]: 9 nM
EC50 ([6]; read-out: EC50): > 10000 nM
Emax [2]: 90%

COc1cccnc1C1CCN(C2CCCN(c3cnc(C)cn3)CC2)CC1 (stereo not drawn)
EC50 [1]: > 4160 nM
Emax [2]: 51%

COc1cccnc1C1CCN(C2CCCN(c3cnsn3)CC2)CC1 (stereo not drawn)
EC50 [1]: 20 nM
Emax [2]: 109%

CCNS(=O)(=O)N1CCCC(N2CCC(c3ncccc3OC)CC2)CC1 (stereo not drawn)
EC50 [1]: > 10000 nM

CCOC(=O)N1CCC(CN2CCC(c3ncccc3OC)CC2)CC1
EC50 [1]: 23 nM
EC50 [6]: Not Active
Emax [2]: 82%

COc1cccnc1C1CCN(C2CCCN(c3nc(C)cs3)CC2)CC1 (stereo not drawn)
EC50 [1]: > 2740 nM
EC50 [3]: > 10000 nM
